Assay results reported in the NIST ThermoML archive (doi:10.1016/j.jct.2016.10.033).

Test: xn = mol fraction of the nth substance listed
Conditions: 103 kPa, Liquid, Vibrating tube method

CO[Si](C)(C)OC [dimethoxydimethylsilane] + CO[Si](C)(OC)c1ccccc1
mass density [kg/m3]
Conditions | 298.15 K | 303.15 K | 308.15 K | 313.15 K | 318.15 K
x2 = 0 | 857.9 | 852.05 | 846.16 | 840.22 | 834.24
x2 = 0.0501 | 867.91 | 862.2 | 856.41 | 850.61 | 844.75
x2 = 0.1001 | 877.51 | 871.89 | 866.22 | 860.51 | 854.76
x2 = 0.15 | 886.69 | 881.2 | 875.64 | 870.06 | 864.46
x2 = 0.2 | 895.55 | 890.16 | 884.71 | 879.29 | 873.78
x2 = 0.25 | 904.02 | 898.68 | 893.28 | 887.86 | 882.41
x2 = 0.2999 | 912.17 | 906.9 | 901.56 | 896.2 | 890.82
x2 = 0.3499 | 920.17 | 914.94 | 909.7 | 904.52 | 899.24
x2 = 0.4001 | 927.65 | 922.49 | 917.31 | 912.1 | 906.86
x2 = 0.4501 | 934.96 | 929.92 | 924.83 | 919.75 | 914.64
x2 = 0.5001 | 942 | 936.98 | 931.93 | 926.87 | 921.78
x2 = 0.55 | 948.79 | 943.85 | 938.85 | 933.86 | 928.85
x2 = 0.6 | 955.36 | 950.46 | 945.52 | 940.57 | 935.6
x2 = 0.6499 | 961.69 | 956.82 | 951.89 | 946.97 | 942.03
x2 = 0.6999 | 967.83 | 962.98 | 958.11 | 953.22 | 948.33
x2 = 0.75 | 973.78 | 968.97 | 964.15 | 959.31 | 954.48
x2 = 0.7997 | 979.5 | 974.72 | 969.93 | 965.13 | 960.32
x2 = 0.8499 | 985.08 | 980.34 | 975.58 | 970.81 | 966.02
x2 = 0.8999 | 990.48 | 985.77 | 981.05 | 976.33 | 971.59
x2 = 0.95 | 995.72 | 991.04 | 986.35 | 981.66 | 976.95

CCO[Si](C)(C)OCC [dimethyldiethoxysilane] + CO[Si](C)(OC)c1ccccc1
mass density [kg/m3]
Conditions | 298.15 K | 303.15 K | 308.15 K | 313.15 K | 318.15 K
x2 = 0 | 835.43 | 830.05 | 824.66 | 819.23 | 813.79
x2 = 0.05 | 844.52 | 839.2 | 833.85 | 828.47 | 823.07
x2 = 0.1001 | 853.53 | 848.24 | 842.96 | 837.62 | 832.3
x2 = 0.1499 | 862.39 | 857.16 | 851.93 | 846.65 | 841.38
x2 = 0.2002 | 871.25 | 866.06 | 860.86 | 855.62 | 850.38
x2 = 0.2501 | 879.99 | 874.82 | 869.69 | 864.51 | 859.35
x2 = 0.3001 | 888.58 | 883.47 | 878.37 | 873.21 | 868.08
x2 = 0.3499 | 897.15 | 892.09 | 887.07 | 881.99 | 876.96
x2 = 0.4 | 905.59 | 900.56 | 895.53 | 890.45 | 885.39
x2 = 0.4499 | 914.02 | 909.03 | 904.09 | 899.09 | 894.16
x2 = 0.5 | 922.3 | 917.36 | 912.44 | 907.47 | 902.55
x2 = 0.55 | 930.51 | 925.59 | 920.71 | 915.78 | 910.89
x2 = 0.5999 | 938.58 | 933.7 | 928.83 | 923.93 | 919.05
x2 = 0.65 | 946.66 | 941.82 | 936.99 | 932.13 | 927.3
x2 = 0.6999 | 954.61 | 949.79 | 944.98 | 940.14 | 935.33
x2 = 0.75 | 962.69 | 957.72 | 952.94 | 948.14 | 943.35
x2 = 0.8 | 970.29 | 965.52 | 960.76 | 955.98 | 951.2
x2 = 0.8498 | 978.01 | 973.29 | 968.57 | 963.83 | 959.11
x2 = 0.9 | 985.69 | 980.99 | 976.3 | 971.58 | 966.88
x2 = 0.95 | 993.25 | 988.58 | 983.91 | 979.23 | 974.53
